Like-named read-outs stand apart in the source and are kept apart here.
Columns and labels:
[1] = Cyclic voltammetry: oxidation/reduction potentials vs. Ag/AgCl; format: physicochemical
Source text: Klimovich, A. A., Popov, A. M., Krivoshapko, O. N., Shtoda, Y. P. & Tsybulsky, A. V. A comparative assessment of the effects of alkaloid tryptanthrin, rosmarinic acid, and doxorubicin on the redox status of tumor and immune cells. Biophysics 62, 588-594 (2017) and in Jahng, Y. Progress in the studies on tryptanthrin, an alkaloid of history. Arch. Pharm. Res. 36, 517-535 (2013)), the electrochemical behavior of the compounds was initially performed by measuring cyclic voltammetry (CV) of TRYP at different pH values. Cyclic voltammograms (CVs) are presented in FIG. 3 and the relevant electrochemical data including the oxidation (Epa) and reduction (Epc) potentials are summarized in table 1.
Cyclic voltammetry (CV) experiments were carried out using an Autolab potentiostat/galvanostat PGSTAT204 running with NOVA 2.1 software and a three-electrode system in a one-compartment electrochemical cell of capacity 10 mL. A glassy carbon electrode (GCE) (d=3 mm) was the working electrode, glassy carbon (GC) (d=1.6 mm) wires the counter electrode and Ag/AgCl (3.0 M KCl) the reference electrode. The GCE was polished with appropriate polishing pads using first aluminium oxide with particle size 0.3 μm and then aluminium oxide particle with size 0.075 μm (polish in a […] motion) before each electrochemical experiment. After polishing, the electrode was rinsed thoroughly with Milli-Q water and the electrode was sonicate in a container with Milli-Q water and ethanol (50:50 v/v) for 5 minutes. Following this mechanical treatment, the GCE was placed in buffer supporting electrolyte and differential pulse voltammograms were recorded until a steady state baseline voltammogram was obtained.
Depending on the pH experiments different electrolytes were used, for pH=0 (1.0 M H2SO4) solution, for pH=7 (1.0 M KCl) solution and pH =13 (1.0 M NaOH) solution. Potassium ferricyanide ([…]) (1.0 mM solution) with 1.0 M of the proper electrolyte in 10 mL of Milli-Q water was used as standard and also degassed with nitrogen for 10 minutes prior to analysis. Lastly, to measure the OCV for BQDS, 1.0 mM was dissolved into 1.0 M KCl solution. An atmosphere of nitrogen was maintained during the voltammetric experiments, and the samples were run at a scan rate of 50 mV s^−1.

[2] = Cyclic voltammetry scan rate study: diffusion coefficient (Randles-Sevcik) and electron transfer rate constant (Nicholson); format: physicochemical
Experimental: To further verify the correlation between the reaction rate of the catholyte/anolyte pair with the performance and stability of the RFBs, the kinetic parameters, diffusion coefficient (D), and electron transfer rate constant (k0), were quantified.
Electrochemical kinetics studies were conducted by CV measurements and Nicholson analysis. […] The Randles-Sevcik equation, described in Elgrishi et al, A Practical Beginner's Guide to Cyclic Voltammetry. Journal of Chemical Education 2018, 95 (2), 197-206, was used to calculate the diffusion coefficient (D in cm^2 s^−1). A linear fit (ip=slope x v½) yields the slope of the cathodic and anodic peaks from which the D was obtained.
(§1) The electron transfer rate constant (k0) of K4[Fe(CN)6]/TRYP-SO3 redox couple was estimated by using the Nicholson method using the D values previously obtained, as described in Nicholson, R. S., Theory and Application of Cyclic Voltammetry for Measurement of Electrode Reaction Kinetics. Analytical Chemistry 1965, 37 (11), 1351-1355.
as §1, with “BQDS/TRYP-SO3” for “K4[Fe(CN)6]/TRYP-SO3”, “couple and TRYP-NH2” for “couple”
First, a solution of 1.0 mM of K4[Fe(CN)6] with 1.0 M of KCl in 10 mL of Milli-Q water was used as catholyte. Second, the catholyte was prepared by dissolving 1.0 mM of BQDS into 10 mL of 1.0 M KCl solution. All the solutions were degassed with nitrogen for 10 min prior to analysis. An atmosphere of nitrogen was maintained during the voltammetric experiments, and the samples were run at a scan rate of 10-100 mV s^−1 range. All the CV experiments were carried out at T=293 K.

[3] = Solubility in supporting electrolyte / water; format: physicochemical; conditions: 1.0 M KCl solution, saline or isotonic; in 1.0 M KCl
[4] = acidic medium, reported studies; cited from earlier work
[5] = in 1.0 M H2SO4; cited from earlier work
[6] = neutral pH, 1.0 mM in 1.0 M KCl
[7] = 1.0 mM in 1.0 M KCl, Nicholson method, T = 293 K

SMILES	Redox potential vs. Ag/AgCl [1] [V]	Oxidation potential Epa^1 (first peak) ([1]; pH 13)	Oxidation potential Epa^2 (second peak) ([1]; pH 13)	Oxidation potential Epa^3 (third peak) ([1]; pH 13)	Reduction potential Epc^1 (first peak) ([1]; pH 13)	Reduction potential Epc^2 (second peak) ([1]; pH 13)	Reduction potential Epc^3 (third peak) ([1]; pH 13)	Diffusion coefficient (D) [2] [cm/s]	Electron transfer rate constant (k0) [2] [cm/s]	solubility [3] [mM]	Electrode potential in KCl ([1]; in KCl, neutral pH) [V]	Redox potential vs. Ag/AgCl [1, 6] [V]	Electrode potential [4] [V]	Diffusion coefficient (D) ([2]; 1.0 mM in 1.0 M KCl, 10-100 mV s^−1, T = 293 K) [cm/s]	Electron transfer rate constant (k0) [2, 7] [cm/s]	Solubility in sulfuric acid [5] [mM]
O=C1c2cc(S(=O)(=O)O)ccc2-n2c1nc1ccccc1c2=O [TRYP-SO3H, 6,12-dioxo-6,12-dihydroindolo[2,1-b]cquinazoline-8-sulfonic acid]	−0.46	Epa^1 = 0.225 V	Epa^2 = 0.738 V	Epa^3 = 1.178 V	Epc^1 = −0.325 V	Epc^2 = −0.802 V	Epc^3 = −0.930 V	6.98e-08	0.000362	–	–	–	–	–	–	–
O.O=S(=O)([O-])c1cc(O)c(O)c(S(=O)(=O)[O-])c1.[Na+].[Na+] [BQDS, 4,5-dihydroxy-1,3-benzenedisulfonic acid disodium salt monohydrate, reference compound]	–	–	–	–	–	–	–	–	–	1280	0.94	0.48	0.76	5.38e-07	0.000271	650
Nc1ccc2nc3n(c(=O)c2c1)-c1ccccc1C3=O [TRYP-NH2, 2-aminoindolo[2,1-b]quinazoline-6,12-dione]	–	–	–	–	–	–	–	–	–	–	–	−0.45	–	–	0.264	–
